Data set [1] concerns the target T1, Induced myeloid leukemia cell differentiation protein Mcl-1 (Homo sapiens, UniProt Q07820). Briefly: Covalent binding affinity to N-terminal His6-tagged human Mcl-1 ligand binding domain (172 to 323 residues) expressed in Escherichia coli BL21(DE3) gold pLysS cells assessed as increase in mass of protein at 100 uM incubated for 16 hrs by LC-MS analysis.
Data set [2] deals with A549. The data set can be described thus: Induction of cell lysis in NucLight Red-labeled human A549 cells assessed as cell bursting at 100 uM measured after 20 mins by IncuCyte S3 live cell analysis based fluorescence microscopy. The format is toxicity. Conditions: a549, 20 min.
The target in data set [3] is T1, Induced myeloid leukemia cell differentiation protein Mcl-1. Briefly: Covalent binding affinity to His residues of Mcl-1 in NucLight Red-labeled human A549 cell lysates assessed as stable adduct formation by measuring band shift at 100 uM incubated for 3 hrs by western blot analysis. The format is subcellular.
Data set [4] concerns A549. Briefly: Potentiation of etoposide-induced apoptosis in NucLight Red-labeled human A549 cells assessed as decrease in cell viability at 50 uM measured for 24 to 72 hrs in presence of etoposide by IncuCyte S3 live cell analysis. The format is functional, cell-based. Conditions: time 24-72 hrs.
Data set [5] concerns the target T2, Bcl-2-related protein A1 (Homo sapiens) (UniProt Q16548).
T2 sequence (whole entry): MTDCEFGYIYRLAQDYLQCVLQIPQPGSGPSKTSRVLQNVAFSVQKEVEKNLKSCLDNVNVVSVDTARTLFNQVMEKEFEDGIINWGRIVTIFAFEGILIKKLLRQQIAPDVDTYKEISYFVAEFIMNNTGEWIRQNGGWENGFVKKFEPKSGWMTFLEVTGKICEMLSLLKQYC
The data set can be described thus: Covalent binding affinity to N-terminal His6-tagged human Bfl-1 (1 to 149 residues) assessed as band shift at 100 uM incubated for 16 hrs by SDS PAGE analysis.

Data set [6] deals with T1, Induced myeloid leukemia cell differentiation protein Mcl-1. The data set can be described thus: Covalent binding affinity to 15N-labeled human Mcl-1 ligand binding domain (172 to 323 residues) assessed as broadening of binding site His224 resonance at 250 uM in presence of BIM BH3 peptide by 2D[15N,1H]HMQC spectroscopy.
Data set [7] is filed under the species Homo sapiens. Briefly: Covalent binding affinity to N-terminal His6-tagged human Mcl-1 ligand binding domain (172 to 323 residues) His252Ala mutant expressed in Escherichia coli BL21(DE3) gold pLysS cells assessed as stable covalent adduct formation by measuring band shift at 100 uM incubated for 16 hrs by SDS PAGE analysis.
Data set [8] deals with T2, Bcl-2-related protein A1 (Homo sapiens). The data set can be described thus: Displacement of biotinylated BH3 peptide from N-terminal His6-tagged human Bfl-1 (1 to 149 residues) preincubated with protein for 2 hrs followed by incubation with BH3 peptide for 2 hrs by DELFIA assay. Particulars: time 4.0 hrs.
Data set [9] concerns the target T1, Induced myeloid leukemia cell differentiation protein Mcl-1. Briefly: Covalent binding affinity to N-terminal His6-tagged human Mcl-1 ligand binding domain (172 to 323 residues) expressed in Escherichia coli BL21(DE3) gold pLysS cells assessed as stable covalent adduct formation by measuring reaction half life at 100 uM incubated for 16 hrs by LC-MS analysis.

In data set [10] the test system is A549. Briefly: Induction of apoptosis in NucLight Red-labeled human A549 cells assessed as decrease in cell viability at 50 uM measured for 24 to 72 hrs by IncuCyte S3 live cell analysis. In kind it is functional, cell-based. Conditions: time 24-72 hrs.
The species named for data set [11] is Homo sapiens. The data set can be described thus: Covalent binding affinity to N-terminal His6-tagged human Mcl-1 ligand binding domain (172 to 323 residues) Lys234Ala mutant expressed in Escherichia coli BL21(DE3) gold pLysS cells assessed as increase in mass of protein at 100 uM incubated for 16 hrs by LC-MS analysis.
In data set [12] the target is T1, Induced myeloid leukemia cell differentiation protein Mcl-1. The data set can be described thus: Covalent binding affinity to 15N-labeled human Mcl-1 ligand binding domain (172 to 323 residues) assessed as His252 resonance at 250 uM in presence of BIM BH3 peptide by 2D[15N,1H]HMQC spectroscopy.
The target is the same in data set [13]. The data set can be described thus: Displacement of biotinylated BH3 peptide from N-terminal His6-tagged human Mcl-1 ligand binding domain (172 to 323 residues) expressed in Escherichia coli BL21(DE3) gold pLysS cells preincubated with protein for 2 hrs followed by incubation with BH3 peptide for 2 hrs by DELFIA assay.
The species named for data set [14] is Homo sapiens. The data set can be described thus: Covalent binding affinity to N-terminal His6-tagged human Mcl-1 ligand binding domain (172 to 323 residues) Lys234Ala mutant expressed in Escherichia coli BL21(DE3) gold pLysS cells assessed as stable covalent adduct formation by measuring band shift at 100 uM incubated for 16 hrs by SDS PAGE analysis.
The target in data set [15] is T1, Induced myeloid leukemia cell differentiation protein Mcl-1. Briefly: Covalent binding affinity to N-terminal His6-tagged human Mcl-1 ligand binding domain (172 to 323 residues) expressed in Escherichia coli BL21(DE3) gold pLysS cells assessed as stable covalent adduct formation by measuring reaction half life at 100 uM incubated for 16 hrs by SDS PAGE analysis.

Data set [16] has the same target. Briefly: Covalent binding affinity to His252 residue of N-terminal His6-tagged 13C(epsilon)-methionine-labeled human Mcl-1 ligand binding domain (172 to 323 residues) expressed in Escherichia coli BL21(DE3) gold pLysS cells assessed as chemical shift perturbations by measuring 1H methyl resonances for binding site Thr259 and Ile181 residues at 100 uM by 1D 1H-aliphatic NMR spectroscopy.

Data set [17] has the same target. Briefly: Covalent binding affinity to His252 residue of N-terminal His6-tagged 13C(epsilon)-methionine-labeled human Mcl-1 ligand binding domain (172 to 323 residues) expressed in Escherichia coli BL21(DE3) gold pLysS cells assessed as chemical shift perturbations by measuring 13C/1H methyl resonances for binding site Met250 residue at 100 uM by 2D [1H,13C]-aliphatic NMR spectroscopy.

Data set [18] has the same target. The data set can be described thus: Covalent binding affinity to His residues of Mcl-1 in intact NucLight Red-labeled human A549 cells assessed as stable adduct formation by measuring band shift at 50 to 100 uM incubated for 12 hrs with treatment replenishment for every 3 hrs by western blot analysis. The format is cell-based. Particulars: dose 50-100 µM. In general terms: In western blotting, separated proteins are transferred to a membrane and probed.

Data set [19] has the same target. Briefly: Covalent binding affinity to N-terminal His6-tagged human Mcl-1 ligand binding domain (172 to 323 residues) expressed in Escherichia coli BL21(DE3) gold pLysS cells assessed as stable covalent adduct formation by measuring band shift at 100 uM incubated for 16 hrs by SDS PAGE analysis.
For data set [20], the system named is A549. Briefly: Induction of apoptosis in NucLight Red-labeled human A549 cells assessed as decrease in cell viability at 10 uM measured for 24 to 72 hrs by IncuCyte S3 live cell analysis. In kind it is functional, cell-based. Conditions: time 24-72 hrs.
In data set [21] the test system is A549. Briefly: Potentiation of etoposide-induced apoptosis in NucLight Red-labeled human A549 cells assessed as decrease in cell viability at 10 uM measured for 24 to 72 hrs in presence of etoposide by IncuCyte S3 live cell analysis. In kind it is functional, cell-based. Particulars: time 24-72 hrs.

Calls of active or inactive are those of the source. No cut-off for these calls is given here. Positions of bridges follow the written chain, without caps; N, C: chain ends. Non-standard residues stand in square brackets, D forms with d. Residues, ends and D or L forms follow the SMILES beside them. *: point of attachment. Benzoyl(2-OMe,5-SO2F) = COc1ccc(S(=O)(=O)F)cc1C(=O)*; S5 = C=CCCC[C@](C)(N)C(=O)O; Dap = NC[C@H](N)C(=O)O

T1 sequence (Q07820 whole entry, the tested form may be a part): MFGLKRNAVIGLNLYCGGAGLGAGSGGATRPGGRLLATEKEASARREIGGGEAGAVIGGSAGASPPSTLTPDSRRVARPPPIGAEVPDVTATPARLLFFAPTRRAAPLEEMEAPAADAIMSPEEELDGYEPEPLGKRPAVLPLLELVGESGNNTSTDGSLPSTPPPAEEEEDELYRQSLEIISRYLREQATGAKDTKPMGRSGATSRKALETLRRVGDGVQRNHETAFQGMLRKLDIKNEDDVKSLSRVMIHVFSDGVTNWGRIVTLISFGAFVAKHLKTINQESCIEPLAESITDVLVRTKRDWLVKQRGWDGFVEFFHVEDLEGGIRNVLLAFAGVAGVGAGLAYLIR

With `CC[C@H](C)[C@H](NC(=O)[C@H](CNC(=O)c1cc(S(=O)(=O)F)ccc1OC)NC(C)=O)C(=O)N[C@@H](C)C(=O)N[C@@H](CCC(=O)O)C(=O)N[C@@H](CCC(N)=O)C(=O)N[C@@H](CC(C)C)C(=O)N[C@@H](CCCNC(=N)N)C(=O)N[C@@]1(C)CCC/C=C\CCC[C@@](C)(C(=O)N[C@@H](Cc2ccccc2)C(N)=O)NC(=O)[C@H](CC(=O)O)NC(=O)CNC(=O)[C@H]([C@@H](C)CC)NC1=O` (Ac-[Dap](Benzoyl(2-OMe,5-SO2F))IAEQLR[S5]IGD[S5]F-NH2; staple (Z) 8-12), the Activity in data set [1] is 1740 Da; in data set [2] it was “Non-Toxic”; in data set [11] it was 1740 Da. Moreover, the result in data set [3], in [4], in [6], in data set [7], in data set [12] and in [14] was Active. Further, the result in data set [16], in data set [17], in data set [18] and in [19] was Active. In addition, the result in data set [5], in data set [8] and in data set [10] was inactive. In addition, the T1/2 in data set [9] and in data set [15] was 6 h throughout. The molecule further showed a concentration for half-maximal inhibition (IC50) in data set [13] of 18 nM.
As for `CC[C@H](C)[C@H](NC(=O)[C@H](CCCNC(=N)N)NC(=O)[C@H](CCCNC(=N)N)NC(=O)[C@H](CC(C)C)NC(=O)[C@H](CCC(N)=O)NC(=O)[C@]1(C)CCC/C=C/CCC[C@](C)(NC(C)=O)C(=O)N[C@@H](CNC(=O)c2cc(S(=O)(=O)F)ccc2OC)C(=O)N[C@@H]([C@@H](C)CC)C(=O)N[C@@H](C)C(=O)N1)C(=O)NCC(=O)N[C@@H](CC(=O)O)C(=O)N[C@@H](CCCNC(=N)N)C(=O)N[C@@H](Cc1ccccc1)C(N)=O` (Ac-[S5][Dap](Benzoyl(2-OMe,5-SO2F))IA[S5]QLRRIGDRF-NH2; staple (E) 1-5), the Activity entry in data set [2] is on record as “Toxic”. The outcome in data set [5] was inactive. In addition, the result in data set [7], in data set [14] and in data set [19] was Active. Moreover, the IC50 in data set [13] was determined as 24 nM.
`Cc1nn(C)c(COc2ccc(N3CCN(S(=O)(=O)N(C)C)CC3)cc2)c1-c1cccc2c(CCCOc3cccc4ccccc34)c(C(=O)O)n(CCN3CCOCC3)c12`: in data set [20], the result was inactive. The result in [21] was Active.

As a reminder, the IC50 is the concentration that gives 50% inhibition. Lower therefore signals higher potency.

(Values after ChEMBL document CHEMBL5550138, “Histidine-Covalent Stapled Alpha-Helical Peptides Targeting hMcl-1” (J Med Chem, 2024).)
